From patent publication US20240279281A1, “Peptide Inhibitors of Interleukin-23 Receptor” (Janssen Pharmaceutica NV, priority 2023, published 2024)
Starred links: 1 amine or outer side, 2 acyl side, 3 side chain; linkers in the order of their positions; H or OH if unused. Positions of bridges follow the written chain, without caps; N, C: chain ends. Non-standard residues stand in square brackets, D forms with d. Residues, ends and D or L forms follow the SMILES beside them. Groups on a side chain read outwards from the residue. *: point of attachment. Trp(7-(3-AcNH-Ph)) = CC(=O)Nc1cccc(-c2cccc3c(C[C@H](N)C(=O)O)c[nH]c23)c1; 2Nal(6-OH) = N[C@@H](Cc1ccc2cc(O)ccc2c1)C(=O)O; Trp(7-Me) = Cc1cccc2c(C[C@H](N)C(=O)O)c[nH]c12; Abu(4-yl) = O=C([C@H](CC[*:3])N[*:1])[*:2]; dLys(Me3) = C[N+](C)(C)CCCC[C@@H](N)C(=O)O; C18 diacid = O=C(O)CCCCCCCCCCCCCCCCC(=O)*; 3Pal(5-Me) = Cc1cncc(C[C@H](N)C(=O)O)c1; γGlu = O=C(O)[C@H](CCC(=O)[*:2])N[*:1]; AEF = NCCOc1ccc(C[C@H](N)C(=O)O)cc1; 3Pal = N[C@@H](Cc1cccnc1)C(=O)O; Ethyl(2-guanidino) = N=C(N)NCC*; Pen = CC(C)(S)[C@H](N)C(=O)O; Thp = NC1(C(=O)O)CCOCC1; X18 = C[N+](C)(C)CCCCC*; AEEA = NCCOCCOCC(=O)O; Ava = NCCCCC(=O)O; Sar = CNCC(=O)O

Legend:
IL-23R = target: T1, IL-23R (Homo sapiens, UniProt Q5VWK5); experiment: IL23R Reporter Assay; assay type: cell-based; conditions: HEK293 cells containing IL-23R, IL-12Rβ1 and STAT-inducible luciferase reporter; 10 ng/mL IL-23; 5 h; read-out: IC50
T1 construct: host or cells: HEK293
T1 sequence (Q5VWK5 24-629): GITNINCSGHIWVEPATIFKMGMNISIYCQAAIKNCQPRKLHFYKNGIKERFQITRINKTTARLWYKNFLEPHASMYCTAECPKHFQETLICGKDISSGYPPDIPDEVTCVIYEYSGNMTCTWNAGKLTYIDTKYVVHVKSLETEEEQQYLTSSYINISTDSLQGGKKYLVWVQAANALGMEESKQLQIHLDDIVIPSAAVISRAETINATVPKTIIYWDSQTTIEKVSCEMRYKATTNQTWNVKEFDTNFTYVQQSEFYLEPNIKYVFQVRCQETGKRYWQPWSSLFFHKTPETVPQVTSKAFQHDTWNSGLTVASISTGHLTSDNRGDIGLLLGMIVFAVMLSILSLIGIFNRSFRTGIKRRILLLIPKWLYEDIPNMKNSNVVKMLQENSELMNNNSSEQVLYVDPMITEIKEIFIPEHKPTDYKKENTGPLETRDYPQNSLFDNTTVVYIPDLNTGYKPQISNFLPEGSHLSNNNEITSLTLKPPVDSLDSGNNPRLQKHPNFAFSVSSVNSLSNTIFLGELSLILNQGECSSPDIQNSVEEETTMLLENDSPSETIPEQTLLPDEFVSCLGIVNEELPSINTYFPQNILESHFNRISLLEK
Description: Compounds were serially diluted in 100% (v/v) DMSO) and plated using an Echo acoustic dispenser (Labcyte) into 1536-well non-treated black assay plates (Corning #9146). […] After 5 h at 37° C., 5% CO2, 95% relative humidity, cells were placed at 20° C. and treated with BioGlo reagent (Promega) according to the Manufacturer's instructions. Luminescence was measured on a Pherastar FSX (BMG LabTech).

[1] = target: T2, IL-23-stimulated phosphorylated STAT3 in peripheral blood mononuclear cells (PBMCs) (Homo sapiens, UniProt Q5VWK5); experiment: PBMC pSTAT3 Assay; assay type: cell-based; conditions: PBMCs from healthy donors, IL-23 5 ng/mL, 30 minutes, read-out: PBMC pSTAT3 IC50
T2 sequence (Q5VWK5 24-629): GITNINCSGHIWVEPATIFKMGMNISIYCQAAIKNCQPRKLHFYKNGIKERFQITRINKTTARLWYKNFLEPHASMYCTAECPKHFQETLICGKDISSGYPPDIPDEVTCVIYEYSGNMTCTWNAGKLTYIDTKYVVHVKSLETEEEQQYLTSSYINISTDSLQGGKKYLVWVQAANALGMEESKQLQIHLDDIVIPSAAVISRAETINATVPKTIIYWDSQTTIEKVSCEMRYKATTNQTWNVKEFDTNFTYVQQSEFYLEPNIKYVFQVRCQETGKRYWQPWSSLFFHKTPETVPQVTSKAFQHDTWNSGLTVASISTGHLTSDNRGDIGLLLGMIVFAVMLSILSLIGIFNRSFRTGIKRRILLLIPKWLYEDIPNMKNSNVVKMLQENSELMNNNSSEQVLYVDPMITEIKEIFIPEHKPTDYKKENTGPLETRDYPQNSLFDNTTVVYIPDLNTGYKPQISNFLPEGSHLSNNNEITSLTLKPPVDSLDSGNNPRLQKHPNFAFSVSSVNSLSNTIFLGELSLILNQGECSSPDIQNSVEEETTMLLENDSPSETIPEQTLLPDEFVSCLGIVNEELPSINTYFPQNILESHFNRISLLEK
Description: Cryopreserved peripheral blood mononuclear cells (PBMCs) from healthy donors were thawed and washed twice in ImmunoCult-XF T cell expansion medium (XF-TCEM) supplemented with CTL anti-aggregate wash. The cells were counted, resuspended at 2-6×10^5 cells per mL XF-TCEM supplemented with penicillin/streptomycin and 100 ng/mL IL-1β (BioLegend, 579404), and cultured in tissue culture flasks coated with anti-CD3 (eBioscience, 16-0037-85 or BD Pharmingen, 555329) at 37° C. in 5% CO2. On day 4 of culture, PBMCs were collected, washed twice in RPMI-1640 supplemented with 0.1% BSA (RPMI-BSA), and incubated in RPMI-BSA in upright tissue culture flasks for ˜4 hours at 37° C. in 5% CO2. Following this ‘starvation,’ a total of 6×10^4 cells in 30 μL RPMI-BSA was transferred into each well of a 384-well plate pre-spotted with peptide or DMSO. The cells were incubated for 30 minutes prior to the addition of IL-23 at a final concentration of 5 ng/mL. The cells were stimulated with cytokine for 30 minutes at 37° C. in 5% CO2, transferred onto ice for 10 minutes, and lysed. Cell lysates were stored at −80° C. until phosphorylated STAT3 was measured using the phospho-STAT panel kit (Meso Scale Discovery, K15202D).

| IC50 (IL-23R) | IC50 [1] | SMILES |
| --- | --- | --- |
| 10000 to 100000 pM | 10 to 100 pM | CC(=O)NCCCC[C@@H]1NC(=O)[C@H](Cc2c[nH]c3c(C)cccc23)NC(=O)[C@H]([C@@H](C)O)NC(=O)[C@H](CC(N)=O)NC(=O)[C@@H](NC(C)=O)C(C)(C)SSC(C)(C)[C@@H](C(=O)N[C@@H](Cc2ccc(OCCN)cc2)C(=O)N[C@@H](Cc2ccc3cc(O)ccc3c2)C(=O)NC2(C(=O)N[C@@H](CCCCNC(=O)COCCOCCNC(=O)COCCOCCNC(=O)CC[C@H](NC(=O)CCCCCCCCCCCCCCCCC(=O)O)C(=O)O)C(=O)N[C@@H](CC(N)=O)C(=O)N[C@@H](Cc3cccnc3)C(=O)N(C)CC(N)=O)CCOCC2)NC1=O [SEQ ID NO: 273, MeCO-Pen(3)-N-T-7MeW-K(Ac)-Pen(3)-AEF-6OH2Nal-THP-K(PEG2PEG2gEC18OH)-N-3Pya-Sar-CONH2] (Ac-[Pen]NT[Trp(7-Me)]K(Ac)[Pen][AEF][2Nal(6-OH)][Thp]K([AEEA-AEEA-γGlu-C18 diacid])N[3Pal][Sar]-NH2; disulfide 1-6) |
| < 10000 pM | 10 to 100 pM | CC(=O)NCCCC[C@@H]1NC(=O)[C@H](Cc2c[nH]c3c(C)cccc23)NC(=O)[C@H]([C@@H](C)O)NC(=O)[C@H](CC(N)=O)NC(=O)[C@@H](NC(=O)[C@@H](CCCNC(=N)N)NC(C)=O)C(C)(C)SSC(C)(C)[C@@H](C(=O)N[C@@H](Cc2ccc(OCCCCC[N+](C)(C)C)cc2)C(=O)N[C@@H](Cc2ccc3cc(O)ccc3c2)C(=O)NC2(C(=O)N[C@@H](CCC(=O)O)C(=O)N[C@@H](CC(N)=O)C(=O)N[C@@H](Cc3cccnc3)C(=O)N(C)CC(N)=O)CCOCC2)NC1=O [compound 59, MeCO-r-Pen(3)-N-T-7MeW-K(Ac)-Pen(3)-TMAPF-6OH2Nal-THP-E-N-3Pya-Sar-CONH2] (Ac-[dR][Pen]NT[Trp(7-Me)]K(Ac)[Pen]Y(X18)[2Nal(6-OH)][Thp]EN[3Pal][Sar]-NH2; disulfide 2-7) |
| < 10000 pM | < 10 pM | CC(=O)NCCCC[C@@H]1NC(=O)[C@H](Cc2c[nH]c3c(-c4cccc(NC(C)=O)c4)cccc23)NC(=O)[C@H]([C@@H](C)O)NC(=O)[C@H](CC(N)=O)NC(=O)[C@@H](NC(=O)[C@@H](CCCC[N+](C)(C)C)NC(C)=O)C(C)(C)SSC(C)(C)[C@@H](C(=O)N[C@@H](Cc2ccc(OCCNC(=N)N)cc2)C(=O)N[C@@H](Cc2ccc3cc(O)ccc3c2)C(=O)NC2(C(=O)N[C@@H](CCC(=O)O)C(=O)N[C@@H](CC(N)=O)C(=O)N[C@@H](Cc3cncc(C)c3)C(=O)N(C)CC(N)=O)CCOCC2)NC1=O [compound 11, MeCO-k(Me)3-Pen(3)-N-T-7(3NAcPh)W-K(Ac)-Pen(3)-AEF(G)-6OH2Nal-THP-E-N-5MePyridinAla-Sar-CONH2] (Ac-[dLys(Me3)][Pen]NT[Trp(7-(3-AcNH-Ph))]K(Ac)[Pen]Y(Ethyl(2-guanidino))[2Nal(6-OH)][Thp]EN[3Pal(5-Me)][Sar]-NH2; disulfide 2-7) |
| < 10000 pM | < 10 pM | CC(=O)NCCCC[C@@H]1NC(=O)[C@H](Cc2c[nH]c3c(C)cccc23)NC(=O)[C@H]([C@@H](C)O)NC(=O)[C@H](CC(N)=O)NC(=O)[C@@H]2CCSC[C@H](NC1=O)C(=O)N[C@@H](Cc1ccc(OCCN)cc1)C(=O)N[C@@H](Cc1ccc3cc(O)ccc3c1)C(=O)NC1(CCOCC1)C(=O)N[C@H](C(=O)N[C@@H](CC(N)=O)C(=O)N[C@@H](Cc1cccnc1)C(=O)N(C)CC(N)=O)CCC(=O)NCCCCC(=O)N2 [compound 171] ([Ava][Abu(4-yl)]NT[Trp(7-Me)]K(Ac)C[AEF][2Nal(6-OH)][Thp]EN[3Pal][Sar]-NH2; thioether 2-7; lactam N-11) |

| SMILES | IC50 (IL-23R) | IC50 [1] |
| --- | --- | --- |
| CC(=O)NCCCC[C@@H]1NC(=O)[C@H](Cc2c[nH]c3c(C)cccc23)NC(=O)[C@H]([C@@H](C)O)NC(=O)[C@@H]2CCCCNCCOc3ccc(cc3)C[C@@H](C(=O)N[C@@H](Cc3ccc4cc(O)ccc4c3)C(=O)NC3(C(=O)N[C@@H](CCCCNC(C)=O)C(=O)N[C@@H](CC(N)=O)C(=O)N[C@@H](Cc4cccnc4)C(=O)N(C)CC(N)=O)CCOCC3)NC(=O)[C@@H](NC1=O)C(C)(C)SSC(C)(C)[C@H](NC(=O)CCCCC[N+](C)(C)C)C(=O)N2 [compound 112, 5cpaCO-Pen(3)-K(5)-T-7MeW-K(Ac)-Pen(3)-AEF(5)-6OH2Nal-THP-K(Ac)-N-3Pya-Sar-CONH2] | < 10000 pM | < 10 pM |
